Measurements: patent publication US8507481B2, “Benzoxazine oxazolidinone compounds, preparation methods and uses thereof” (Shanghai Institute of Materia Medica, Chinese Academy of …, priority 2010, dated 2013)
Converted amounts (≈) assume the structure as drawn. “And” between values parts separate entries of the source, which are not always exact repeats. Equal values may be shown once. Read-outs that look alike come from different tables or passages of the source.

Legend:
Enterococcus (6 strains) = assay: MIC by agar dilution, Enterococcus; type: cell-based; details: 35° C., 16 hours
Protocol: (§1) Test method: minimal inhibitory concentration (MIC) of series of compounds of the present invention and the positive control drug linezo lid against the tested strains was determined using agar dilution method (Antimicrob. Agents and Chemother., 40, 1996. 720-726). The bacteria was inoculated on the surface of agar plates with different drug concentrations using a multi-point inoculation instrument (Denley A400). Inoculum of each point was about 10^6 CFU/mL, and inoculation was performed at 35° C. for 16 hours to get observation. The minimal concentration of a drug contained in the plate medium without bacteria growth was considered as the minimal inhibitory concentration (MIC value) of the drug against bacteria.
(§2) Tested strains: the tested strains were clinically isolated pathogenic bacteria collected in the Nanjing area, and re-identified by conventional methods before use. 31 pathogenic bacteria are selected, and strain serial numbers were as following: six enterococci; five Staphylococcus aureus sensitive strains; five Staphylococcus epidermidis sensitive strains; six Staphylococcus aureus drug-resistant strains; five Staphylococcus epidermidis drug-resistant strains; four pneumococcus drug-resistant strains.
(§3) At first, tested compounds were added into 2 mL of DMSO, which could facilitate full dissolution, and then sterile double distilled water was added to a desired concentration; 20 mL MH medium in heat-melted to liquid was added to each of plates with drug solution, so that the final drug concentrations in the plates were 64, 32, 16, 8, 4, 2, 1, 0.5, 0.25, 0.125, 0.0625 and 0.031 μg/mL.
(§4) The positive control group was LZ (linezolid, trade name Zyvox, which was approved by the FDA in 2000 to be first launched in the United States and is the first and only oxazolidinone antibacterial drug permitted to be used in clinical practice at present).

[1] = test system: Staphylococcus aureus sensitive strain (5 strains); assay: MIC by agar dilution, Staphylococcus aureus sensitive strains; type: cell-based; details: 35° C., 16 hours
Protocol: as §1, §2, §3, §4

[2] = test system: Staphylococcus epidermidis sensitive strain (5 strains); assay: MIC by agar dilution, Staphylococcus epidermidis sensitive strains; type: cell-based; set-up: unit not given here; details: 35° C., 16 hours
Protocol: as §1, §2, §3, §4

[3] = test system: Staphylococcus aureus drug-resistant strain (6 strains); assay: MIC by agar dilution, Staphylococcus aureus drug-resistant strains; type: cell-based; set-up: unit not given here; details: 35° C., 16 hours
Protocol: as §1, §2, §3, §4

[4] = test system: Staphylococcus epidermidis drug-resistant strain (5 strains); assay: MIC by agar dilution, Staphylococcus epidermidis drug-resistant strains; type: cell-based; details: 35° C., 16 hours
Protocol: as §1, §2, §3, §4

[5] = test system: Pneumococcus drug-resistant strain (4 strains); assay: MIC by agar dilution, pneumococcus drug-resistant strains; type: cell-based; set-up: unit not given here; details: 35° C., 16 hours
Protocol: as §1, §2, §3, §4

[6] = test system: methicillin-resistant Staphylococcus aureus (MRSA); assay: In vivo antibacterial activity in mice infected with MRSA; set-up: species or system Kunming mice; details: for ED50: Staphylococcus aureus
From the text: Experimental strains: the bacteria used for infecting animals was methicillin-resistant Staphylococcus aureus (MRSA), which was clinically isolated pathogenic bacteria collected in Nanjing area in 2009, and re-identified by the API method.
Experimental animals: Healthy Kunming mice of SPF grade and weighing 18-22 g were chosen, and male and female were 50% each, and they were supplied by animal breeding office of Pharmacology Laboratory, China Pharmaceutical University.
Test method of infection and treatment: The experimental animals were evenly grouped by sex and weight, each group had 10 mice, including 50% of male and female, respectively. Intraperitoneal injection of bacteria solution was performed among animals at 0.5 mL/animal. One hour after infection, the tested drug solution (Compound 7 of the present invention and the positive control drug LZ) of different concentrations were given to each animal by oral gavage or intravenous injection at 0.5 mL/20 g, respectively. For mice receiving oral gavage, another gavage was given 4 hours after the first dose, observation was performed after administration, and death was recorded. An infected control group was set up for the same group, and the number of the deaths within seven days after infection was recorded.
Experimental data processing: median effective dose ED50 and 95% confidence limits were calculated by Bliss for in vivo protective effect of each tested drug among mice infected with tested strain.

[7] = In vivo pharmacokinetic trial in rat (gavage and intravenous injection); set-up: species or system SD male rats
Protocol: The tested compound was Compound 7, using two administration routes (gavage and intravenous injection).
(§5) Gavage: four healthy SD male rats weighing 200-250 g were given a dose of 15 mg/kg, with an administered volume of 10 mL/kg. And the compound was prepared as 0.5% CMC—Na. The animals were fasted for 12 hours and had free access to water before administration, 0.3 mL of venous blood was sampled through retrobulbar venous plexus at 0.25, 0.5, 1, 0, 2.0, 3.0, 4.0, 5.0, 7.0, 9.0, 24, and 48 hours after administration and collected in heparinized test tubes, which is subjected to centrifugation at 3500 rpm for 10 min to separate the plasma, and stored at −20° C. for testing.
as §5, with “Intravenous injection: two” for “Gavage: four”, “using DMSO, Tween 80 and deionized water.” for “as 0.5% CMC—Na.”, “5 min, 15 min,” for “0.25,”, “1.0,” for “1, 0,”
Concentration of Compound 7 in plasma was determined using liquid chromatography-tandem mass spectrometry.

[8] = gavage 15 mg/kg, individual animals No. 1-4, 15 mg/kg
[9] = gavage 15 mg/kg, mean of 4 animals
[10] = intravenous injection 15 mg/kg, individual animals No. 5-6, 15 mg/kg
[11] = intravenous injection 15 mg/kg, mean of 2 animals
[12] = male, SD, plasma, iv, 15 mg/kg, intravenous injection 15 mg/kg, individual animals No. 5-6
[13] = male, SD, plasma, po, 15 mg/kg, gavage 15 mg/kg, individual animals No. 1-4
[14] = male, SD, plasma, po, 15 mg/kg, gavage 15 mg/kg, mean of 4 animals

## Cn1nnnc1-c1ccc(-c2ccc3c(c2)OC[C@H]2[C@@H](Cn4ccnn4)OC(=O)N32)cn1 [Compound 51, (3R,3aS)-3-((1H-1,2,3-triazol-1-yl)methyl)-7-(6-(1-methyl-1H-tetrazol-5-yl)pyridin-3-yl)-3a,4-dihydrobenzo[b]oxazole[3,4-d][1,4]oxazine-1(3H)-one]
Enterococcus (6 strains)
  MIC, Enterococcus (6 strains): 500 µM (≈ 216 µg/mL)
[1]
  MIC, Staphylococcs aureus sensitive strain (5 strains): 250 µM (≈ 108 µg/mL)
[2]
  MIC, Staphylococcus epidremidis sensitive strain (5 strains): 0.5
[3]
  MIC, Staphylococcus aureus drug-resistant strain (6 strains): 0.5
[4]
  MIC, Staphylococcus epidermidis drug-resistant strain (5 strains): 500 µM (≈ 216 µg/mL)
[5]
  MIC, Pneumococcus drug-resistant strain (4 strains): 0.5

## CC(=O)NC[C@H]1CN(c2ccc(N3CCOCC3)c(F)c2)C(=O)O1 [LZ, linezolid, reference compound]
[6]; ip, mice infected i.p. with MRSA, p.o (gavage 1 h after infection and again 4 h after first dose), deaths within seven days, read-out: ED50
  ED50: 8.5 mg/kg
[6]; mice infected i.p. with MRSA, iv 1 h after infection, deaths within seven days, read-out: ED50
  ED50: 8.51 mg/kg

## N(((3S,3aS)-7-(6-(4-methyl piperazin-1-yl)pyridin-3-yl)-1-oxo-1,3,3a,4-tetrahydrobenzo[b]oxazole-[3,4-d][1,4]oxazin-3-yl)methyl)acetamide [Compound 62]
Enterococcus (6 strains)
  MIC, Enterococcus (6 strains): 500 µM
[1]
  MIC, Staphylococcs aureus sensitive strain (5 strains): 500 µM
[2]
  MIC, Staphylococcus epidremidis sensitive strain (5 strains): 0.5
[3]
  MIC, Staphylococcus aureus drug-resistant strain (6 strains): 0.5
[4]
  MIC, Staphylococcus epidermidis drug-resistant strain (5 strains): 500 µM
[5]
  MIC, Pneumococcus drug-resistant strain (4 strains): 0.5

## CC(=O)NC[C@@H]1OC(=O)N2c3ccc(-c4ccc(C#N)nc4)cc3OC[C@@H]12 [Compound 7, N-(((3S,3aS)-7-(6-cyanopyridin-3-yl)-1-oxo-1,3,3a,4-tetrahydrobenzo[b]oxazole-[3,4-d][1,4]oxazin-3-yl)methyl)acetamide]
[7]; 15 mg/kg gavage and intravenous injection
  metabolic properties: good metabolic properties
[7]; [8]
  AUC0-t: 57191 ng·h/mL and 61593 ng·h/mL and 79448 ng·h/mL
  AUC0-∞: 57255 ng·h/mL and 61983 ng·h/mL and 79622 ng·h/mL
  CLz: 3.73 mL/min/kg and 4.37 mL/min/kg and 4.03 mL/min/kg and 3.13 mL/min/kg
  Cmax: 3958 ng/mL and 4772 ng/mL and 6269 ng/mL
  MRT: 8.65 h and 8.79 h and 9.09 h
  Tmax: 2.0 h and 5.0 h
  Vz: 1.81 L/kg and 1.79 L/kg and 2.22 L/kg and 1.44 L/kg
  t1/2: 4.74 h and 6.36 h and 5.31 h
[7]; [9]
  CLz: 3.82 mL/min/kg
  Vz: 1.82 L/kg
[7]; intravenous injection 15 mg/kg, individual animals No. 5-6
  Tmax: 2.0 h
[7]; [10]
  AUC0-t: 87218 ng·h/mL
  AUC0-∞: 87475 ng·h/mL
  CLz: 3.28 mL/min/kg and 2.85 mL/min/kg
  MRT: 8.77 h
  Vz: 1.42 L/kg
  t1/2: 5.72 h
[7]; [11]
  AUC0-∞: 81844 ng·h/mL
  CLz: 3.07 mL/min/kg
  Tmax: 2.0 h
  t1/2: 5.58 h
[7]; [12]
  AUC(0-inf): 76200 ng·h/mL
  half-life: 5.44 h
[7]; male, SD, plasma, iv, 15 mg/kg, intravenous injection 15 mg/kg, individual animals No. 5-6, read-out: AUC0-t
  AUC0-t: 76100 ng·h/mL
[7]; male, SD, plasma, iv, 15 mg/kg, intravenous injection 15 mg/kg, individual animals No. 5-6, read-out: Cmax
  Cmax: 7510 ng/mL
[7]; male, SD, plasma, iv, 15 mg/kg, intravenous injection 15 mg/kg, individual animals No. 5-6, read-out: MRT
  MRT: 7.98 h
[7]; male, SD, plasma, iv, 15 mg/kg, intravenous injection 15 mg/kg, individual animals No. 5-6, read-out: Vz
  Vd: 1.55 L/kg
[7]; male, SD, plasma, iv, 15 mg/kg, intravenous injection 15 mg/kg, mean of 2 animals, read-out: AUC0-t
  AUC0-t: 81600 ng·h/mL
[7]; male, SD, plasma, iv, 15 mg/kg, intravenous injection 15 mg/kg, mean of 2 animals, read-out: Cmax
  Cmax: 7510 ng/mL
[7]; male, SD, plasma, iv, 15 mg/kg, intravenous injection 15 mg/kg, mean of 2 animals, read-out: MRT
  MRT: 8.37 h
[7]; male, SD, plasma, iv, 15 mg/kg, intravenous injection 15 mg/kg, mean of 2 animals, read-out: Vz
  Vd: 1.48 L/kg
[7]; [13]
  AUC(0-inf): 67100 ng·h/mL
  half-life: 5.6 h
[7]; male, SD, plasma, po, 15 mg/kg, gavage 15 mg/kg, individual animals No. 1-4, read-out: AUC0-t
  AUC0-t: 66900 ng·h/mL
[7]; male, SD, plasma, po, 15 mg/kg, gavage 15 mg/kg, individual animals No. 1-4, read-out: Cmax
  Cmax: 5450 ng/mL
[7]; male, SD, plasma, po, 15 mg/kg, gavage 15 mg/kg, individual animals No. 1-4, read-out: MRT
  MRT: 7.96 h
[7]; [14]
  AUC(0-inf): 66500 ng·h/mL
  half-life: 5.5 h
[7]; male, SD, plasma, po, 15 mg/kg, gavage 15 mg/kg, mean of 4 animals, read-out: AUC0-t
  AUC0-t: 66300 ng·h/mL
[7]; male, SD, plasma, po, 15 mg/kg, gavage 15 mg/kg, mean of 4 animals, read-out: Cmax
  Cmax: 5110 ng/mL
[7]; male, SD, plasma, po, 15 mg/kg, gavage 15 mg/kg, mean of 4 animals, read-out: MRT
  MRT: 8.62 h
[7]; male, SD, plasma, po, 15 mg/kg, gavage 15 mg/kg, mean of 4 animals, read-out: Tmax
  Tmax: 4 h
[7]; male, SD, plasma, po, gavage 15 mg/kg, calculated as AUC0-t, read-out: F (absolute bioavailability)
  bioavailability: 81.2%
[6]; MRSA
  ED50: 5.53 mg/kg
[6]; MRSA, ip
  ED50: 5.92 mg/kg
[6]; mouse model infected with MRSA
  in vivo activity compared with control drug LZ: significantly better than that of the control drug LZ

## N#Cc1ccc(-c2ccc3c(c2)OC[C@H]2[C@@H](Cn4ccnn4)OC(=O)N32)cn1 [Compound 49, (3R,3aS)-3-((1H-1,2,3-triazol-1-yl)methyl)-7-(6-cyanopyridin-3-yl)-3a,4-dihydrobenzo[b]oxazole[3,4-d][1,4]oxazine-1(3H)-one]
Enterococcus (6 strains)
  MIC, Enterococcus (6 strains): 500 µM (≈ 187 µg/mL)
[1]
  MIC, Staphylococcs aureus sensitive strain (5 strains): 500 µM (≈ 187 µg/mL)
[2]
  MIC, Staphylococcus epidremidis sensitive strain (5 strains): 0.25
[3]
  MIC, Staphylococcus aureus drug-resistant strain (6 strains): 0.25
[4]
  MIC, Staphylococcus epidermidis drug-resistant strain (5 strains): 250 µM (≈ 93.6 µg/mL)
[5]
  MIC, Pneumococcus drug-resistant strain (4 strains): 0.5
